Reference: ChEMBL document CHEMBL3864146, “5-Alkyloxytryptamines are membrane-targeting, broad-spectrum antibiotics” (Bioorg Med Chem Lett, 2016)

Columns and labels:
Escherichia coli [1] = test: Induction of membrane permeabilization in Escherichia coli BW25113 at MIC after 15 mins by propidium iodide staining-based fluorescence microplate reader method relative to 50% ethanol; type: functional
Escherichia coli [2] = test: Adjuvant activity assessed as potentiation of tetracycline-induced antibacterial activity against Escherichia coli BW25113 at 0.5 times MIC after 16 to 18 hrs by checkerboard assay (reference value: 2 ng/ml); type: functional
Vibrio cholerae = test: Antibacterial activity against Vibrio cholerae after 16 to 18 hrs by micro-dilution method; type: functional
Klebsiella pneumoniae [3] = test: Antibacterial activity against Klebsiella pneumoniae after 16 to 18 hrs by micro-dilution method; type: functional
[4] = Cytotoxicity against HEK cells assessed as cell viability at 21 ug/ml after 48 hrs by CellTiter-Glo assay relative to control; type: toxicity, cell-based, HEK293; settings: human, read-out: Activity
Klebsiella pneumoniae [5] = test: Adjuvant activity assessed as potentiation of rifampicin-induced antibacterial activity against Klebsiella pneumoniae at 21 ug/ml after 16 to 18 hrs by checkerboard assay (reference value: 16 ug/ml); type: functional
Shigella boydii = test: Antibacterial activity against Shigella boydii after 16 to 18 hrs by micro-dilution method; type: functional
Bacillus subtilis = test: Antibacterial activity against Bacillus subtilis 168 after 16 to 18 hrs by micro-dilution method; type: functional; settings: subsp. subtilis str. 168
Klebsiella aerogenes = test: Antibacterial activity against Enterobacter aerogenes after 16 to 18 hrs by micro-dilution method; type: functional
Escherichia coli [6] = test: Adjuvant activity assessed as potentiation of chloramphenicol-induced antibacterial activity against Escherichia coli BW25113 at 0.5 times MIC after 16 to 18 hrs by checkerboard assay (reference value: 8 ng/ml); type: functional
Acinetobacter baumannii [7] = test: Antibacterial activity against Acinetobacter baumannii after 16 to 18 hrs by micro-dilution method; type: functional
Acinetobacter baumannii [8] = test: Adjuvant activity assessed as potentiation of rifampicin-induced antibacterial activity against Acinetobacter baumannii at 21 ug/ml after 16 to 18 hrs by checkerboard assay (reference value: 2 ug/ml); type: functional
Escherichia coli [9] = test: Adjuvant activity assessed as potentiation of ciprofloxacin-induced antibacterial activity against Escherichia coli BW25113 at 0.5 times MIC after 16 to 18 hrs by checkerboard assay (reference value: 13 ng/ml); type: functional
Pseudomonas aeruginosa [10] = test: Adjuvant activity assessed as potentiation of rifampicin-induced antibacterial activity against Pseudomonas aeruginosa at 21 ug/ml after 16 to 18 hrs by checkerboard assay (reference value: 16 ug/ml); type: functional
Salmonella typhimurium [11] = test: Adjuvant activity assessed as potentiation of rifampicin-induced antibacterial activity against Salmonella typhimurium at 21 ug/ml after 16 to 18 hrs by checkerboard assay (reference value: 8 ug/ml); type: functional, Salmonella enterica subsp. enterica serovar Typhimurium; settings: Salmonella enterica
Escherichia coli [12] = test: Adjuvant activity assessed as potentiation of chloramphenicol-induced antibacterial activity against Escherichia coli BW25113 at 0.25 times MIC after 16 to 18 hrs by checkerboard assay (reference value: 8 ng/ml); type: functional
Escherichia coli [13] = test: Antibacterial activity against tolC-deficient Escherichia coli BW25113 after 16 to 18 hrs by micro-dilution method; type: functional
Edwardsiella tarda = test: Antibacterial activity against Edwardsiella tarda after 16 to 18 hrs by micro-dilution method; type: functional
Escherichia coli [14] = test: Antibacterial activity against Escherichia coli BW25113 after 16 to 18 hrs by micro-dilution method; type: functional
Escherichia coli [15] = test: Adjuvant activity assessed as potentiation of tetracycline-induced antibacterial activity against Escherichia coli BW25113 at 0.25 times MIC after 16 to 18 hrs by checkerboard assay (reference value: 2 ng/ml); type: functional
Morganella morganii = test: Antibacterial activity against Morganella morganii after 16 to 18 hrs by micro-dilution method; type: functional
Pseudomonas aeruginosa [16] = test: Antibacterial activity against Pseudomonas aeruginosa after 16 to 18 hrs by micro-dilution method; type: functional
Staphylococcus aureus [17] = test: Adjuvant activity assessed as potentiation of rifampicin-induced antibacterial activity against Staphylococcus aureus at 21 ug/ml after 16 to 18 hrs by checkerboard assay (reference value: 0.004 ug/ml); type: functional
[18] = Cytotoxicity against HEK cells assessed as cell viability at 5.3 ug/ml after 48 hrs by CellTiter-Glo assay relative to control; type: toxicity, cell-based, HEK293; settings: human, read-out: Activity
[19] = Cytotoxicity against HEK cells assessed as cell viability at 10.5 ug/ml after 24 hrs by CellTiter-Glo assay relative to control; type: toxicity, cell-based, HEK293; settings: human, read-out: Activity
[20] = Cytotoxicity against HEK cells assessed as cell viability at 5.3 ug/ml after 24 hrs by CellTiter-Glo assay relative to control; type: toxicity, cell-based, HEK293; settings: human, read-out: Activity
Escherichia coli [21] = test: Adjuvant activity assessed as potentiation of rifampicin-induced antibacterial activity against Escherichia coli BW25113 at 0.25 times MIC after 16 to 18 hrs by checkerboard assay (reference value: 8 ng/ml); type: functional
Escherichia coli [22] = test: Adjuvant activity assessed as potentiation of ciprofloxacin-induced antibacterial activity against Escherichia coli BW25113 at 0.25 times MIC after 16 to 18 hrs by checkerboard assay (reference value: 13 ng/ml); type: functional
[23] = Cytotoxicity against HEK cells assessed as cell viability at 10.5 ug/ml after 48 hrs by CellTiter-Glo assay relative to control; type: toxicity, cell-based, HEK293; settings: human, read-out: Activity
Salmonella typhimurium [24] = test: Antibacterial activity against Salmonella typhimurium after 16 to 18 hrs by micro-dilution method; type: functional, Salmonella enterica subsp. enterica serovar Typhimurium; settings: Salmonella enterica
[25] = Cytotoxicity against HEK cells assessed as cell viability at 21 ug/ml after 24 hrs by CellTiter-Glo assay relative to control; type: toxicity, cell-based, HEK293; settings: human, read-out: Activity
Escherichia coli [26] = test: Adjuvant activity assessed as potentiation of rifampicin-induced antibacterial activity against Escherichia coli BW25113 at 0.5 times MIC after 16 to 18 hrs by checkerboard assay (reference value: 8 ng/ml); type: functional
Staphylococcus aureus [27] = test: Antibacterial activity against Staphylococcus aureus after 16 to 18 hrs by micro-dilution method; type: functional

## CCCCCCOc1ccc2[nH]cc(CCN)c2c1.Cl
Escherichia coli [1]
  Activity: 34%
Escherichia coli [2]
  MIC: 0.001 µg/mL
Vibrio cholerae
  MIC: 42 µg/mL
Klebsiella pneumoniae [3]
  MIC: 42 µg/mL
[4]
  viability at 48 h, 21 ug/ml: 0%
Klebsiella pneumoniae [5]
  MIC: 8 µg/mL
Shigella boydii
  MIC: 42 µg/mL
Bacillus subtilis
  MIC: 42 µg/mL
Klebsiella aerogenes
  MIC: 42 µg/mL
Escherichia coli [6]
  MIC: 0.004 µg/mL
Acinetobacter baumannii [7]
  MIC: 42 µg/mL
Acinetobacter baumannii [8]
  MIC: 0.016 µg/mL
Escherichia coli [9]
  MIC: 0.013 µg/mL
Pseudomonas aeruginosa [10]
  MIC: 16 µg/mL
Salmonella typhimurium [11]
  MIC: 0.5 µg/mL
Escherichia coli [12]
  MIC: 0.004 µg/mL
Escherichia coli [13]
  MIC: 42 µg/mL
Edwardsiella tarda
  MIC: 42 µg/mL
Escherichia coli [14]
  MIC: 42 µg/mL
Escherichia coli [15]
  MIC: 0.002 µg/mL
Morganella morganii
  MIC: > 83 µg/mL
Pseudomonas aeruginosa [16]
  MIC: > 83 µg/mL
Staphylococcus aureus [17]
  MIC: 0.004 µg/mL
[18]
  viability at 48 h, 5.3 ug/ml: 0.1%
[19]
  viability at 24 h, 10.5 ug/ml: 0.1%
[20]
  viability at 24 h, 5.3 ug/ml: 0.4%
Escherichia coli [21]
  MIC: 0.004 µg/mL
Escherichia coli [22]
  MIC: 0.013 µg/mL
[23]
  viability at 48 h, 10.5 ug/ml: 0%
Salmonella typhimurium [24]
  MIC: 42 µg/mL
[25]
  viability at 24 h, 21 ug/ml: 0%
Escherichia coli [26]
  MIC: 0.001 µg/mL
Staphylococcus aureus [27]
  MIC: 42 µg/mL
